Experiments:
FSHR = biological target: T1, FSHR (Homo sapiens, UniProt P23945); assay: EC50 of cyclic AMP production in CHO FSHR cells + EC20 FSH (Assay A); assay type: cell-based; conditions: CHO FSHR cells + EC20 FSH, cAMP HTRF; read-out: Assay A: EC50 of cyclic AMP production
T1 construct: expressed in transfected cells; host or cells: CHO (Cho-FSHR-LUC-1-1-43)
T1 sequence (P23945 18-695): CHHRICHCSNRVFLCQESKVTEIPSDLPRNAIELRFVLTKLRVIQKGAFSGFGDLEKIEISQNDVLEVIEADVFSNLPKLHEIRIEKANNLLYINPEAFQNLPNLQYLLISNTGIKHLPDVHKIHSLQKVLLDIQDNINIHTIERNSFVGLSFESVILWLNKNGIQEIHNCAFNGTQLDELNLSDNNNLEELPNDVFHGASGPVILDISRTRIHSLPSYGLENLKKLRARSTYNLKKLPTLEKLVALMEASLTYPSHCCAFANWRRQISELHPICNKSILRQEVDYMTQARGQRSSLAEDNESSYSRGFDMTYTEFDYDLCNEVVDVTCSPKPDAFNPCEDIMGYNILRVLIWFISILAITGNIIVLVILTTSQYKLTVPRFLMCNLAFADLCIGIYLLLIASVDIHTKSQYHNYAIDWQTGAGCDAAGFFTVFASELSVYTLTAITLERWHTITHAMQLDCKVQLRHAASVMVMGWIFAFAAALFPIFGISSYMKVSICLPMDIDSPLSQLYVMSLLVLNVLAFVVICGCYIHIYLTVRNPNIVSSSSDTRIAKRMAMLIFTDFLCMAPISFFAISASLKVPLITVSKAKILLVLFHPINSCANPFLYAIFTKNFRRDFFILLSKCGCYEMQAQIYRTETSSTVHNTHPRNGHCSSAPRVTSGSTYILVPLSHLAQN
Summary of the method: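 cAMP HTRF read-out (665 nm/620 nm ratio) after 1 h at 37° C of Cho-FSHR-LUC cells treated with serially diluted test compound plus EC20 FSH ([…]) and IBMX (final 200 μM). Responses given as percent of maximal FSH-standard effect.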

[1] = biological target: T2, follicle-stimulating hormone (FSH) receptor (Rattus norvegicus, UniProt P20395); assay: Rat granulosa EC50 FSH (Assay B); assay type: cell-based; conditions: for EC50: rat granulosa cells, read-out: Assay B: Rat granulosa EC50 FSH
T2 construct: endogenous in cells; host or cells: primary rat granulosa cells
T2 sequence (P20395 18-692): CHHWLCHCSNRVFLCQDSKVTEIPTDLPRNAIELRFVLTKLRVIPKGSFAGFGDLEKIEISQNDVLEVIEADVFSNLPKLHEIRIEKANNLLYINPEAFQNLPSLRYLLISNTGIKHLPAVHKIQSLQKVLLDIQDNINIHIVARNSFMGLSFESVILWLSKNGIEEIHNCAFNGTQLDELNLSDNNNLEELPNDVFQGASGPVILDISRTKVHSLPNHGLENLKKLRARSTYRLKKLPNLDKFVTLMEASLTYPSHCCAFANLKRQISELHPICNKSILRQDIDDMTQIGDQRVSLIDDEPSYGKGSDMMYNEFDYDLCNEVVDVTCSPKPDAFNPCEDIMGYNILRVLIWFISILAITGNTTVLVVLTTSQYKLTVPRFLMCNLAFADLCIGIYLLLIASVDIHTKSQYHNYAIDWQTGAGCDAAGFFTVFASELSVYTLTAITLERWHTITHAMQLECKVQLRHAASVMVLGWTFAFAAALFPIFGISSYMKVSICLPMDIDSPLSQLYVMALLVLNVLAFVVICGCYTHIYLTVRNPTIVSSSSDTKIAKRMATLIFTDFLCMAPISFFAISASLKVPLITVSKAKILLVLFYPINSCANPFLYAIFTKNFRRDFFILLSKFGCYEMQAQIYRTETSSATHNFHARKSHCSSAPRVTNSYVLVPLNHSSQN
Protocol: Rat Granulosa EC50 FSH (Assay B)
The assay was performed pursuant to the teaching of Yanofsky et al. (2006) Allosteric activation of the follicle-stimulating hormone (FSH) receptor by selective, nonpeptide agonists (JBC 281(19): 13226-13233, which is incorporated by reference in the disclosure of the invention).

| SMILES | EC50 (FSHR) [nM] | EC50 [1] [nM] | Emax at 30 µM ([1]; read-out: Assay B: percental effect (response) relative to the maximum response of the FSH standard) [%] |
| --- | --- | --- | --- |
| COc1cc2c(cc1-c1c(C)n[nH]c1C)-c1c(c(C(=O)N3CCOCC3(C)C)nn1-c1ccsc1)CO2 [Compound 126, (3,3-Dimethyl-morpholin-4-yl)-[8-(3,5-dimethyl-1H-pyrazol-4-yl)-7-methoxy-1-thiophen-3-yl-1,4-dihydro-chromeno[4,3-c]pyrazol-3-yl]-methanone] | < 100 | 100 to 1000 |  |
| COc1cc2c(cc1-c1cccnc1)-c1c(c(C(=O)N(C)C(C)(C)C)nn1-c1ccsc1)CO2 [Compound 2, 7-Methoxy-8-pyridin-3-yl-1-thiophen-3-yl-1,4-dihydro-chromeno[4,3-c]pyrazole-3-carboxylic Acid tert-butyl-methyl-amide] | < 100 |  | 54 |
| COc1cc2c(cc1-c1ccn(C)c1)-c1c(c(C(=O)N3CCN(C)CC3(C)C)nn1-c1ccsc1)CO2 [Compound 160, [7-Methoxy-8-(1-methyl-1H-pyrrol-3-yl)-1-thiophen-3-yl-1,4-dihydro-chromeno[4,3-c]pyrazol-3-yl]-(2,2,4-trimethyl-piperazin-1-yl)-methanone] | < 100 | < 100 |  |
| COc1cc2c(cc1-c1ccn(C)n1)-c1c(c(C(=O)N3CCOCC3C)nn1-c1ccsc1)CO2 (stereo not drawn) [Compound 218] | < 100 | 100 to 1000 |  |
| [2H]C([2H])([2H])OCC1(N(C(=O)c2nn(-c3ccsc3)c3c2COc2cc(OC)c(-c4ccn(C)n4)cc2-3)C([2H])([2H])[2H])COC1 [Compound 114] | < 100 | 1000 to 5000 |  |
| COc1cc2c(cc1C(O)C(C)C)-c1c(c(C(=O)N3CCOCC3(C)C)nn1-c1ccsc1)CO2 (stereo not drawn) [Compound 131, (3,3-Dimethyl-morpholin-4-yl)-[8-(1-hydroxy-2-methyl-propyl)-7-methoxy-1-thiophen-3-yl-1,4-dihydro-chromeno[4,3-c]pyrazol-3-yl]-methanone] | < 100 | 1000 to 5000 |  |
| COc1cc2c(cc1-c1c(C)nn(C)c1C)-c1c(c(C(=O)N3CCOCC3(C)C)nn1-c1ccsc1)CO2 [Compound 121, (3,3-Dimethyl-morpholin-4-yl)-[7-methoxy-1-thiophen-3-yl-8-(1,3,5-trimethyl-1H-pyrazol-4-yl)-1,4-dihydro-chromeno[4,3-c]pyrazol-3-yl]-methanone] | < 100 | > 5000 |  |
| COc1cc2c(cc1C1=CCOCC1)-c1c(c(C(=O)N3CCOCC3(C)C)nn1-c1ccsc1)CO2 [Compound 189, [8-(3,6-Dihydro-2H-pyran-4-yl)-7-methoxy-1-thiophen-3-yl-1,4-dihydro-chromeno[4,3-c]pyrazol-3-yl]-(3,3-dimethyl-morpholin-4-yl)-methanone] | < 100 | < 100 |  |
| COc1cc2c(cc1-c1ccn(C)n1)-c1c(c(C(=O)N3CCNCC3(C)C)nn1-c1ccsc1)CO2 [Compound 169, (2,2-Dimethyl-piperazin-1-yl)-[7-methoxy-8-(1-methyl-1H-pyrazol-3-yl)-1-thiophen-3-yl-1,4-dihydro-chromeno[4,3-c]pyrazol-3-yl]-methanone] | < 100 | 100 to 1000 |  |
| COc1cc2c(cc1-c1cn[nH]c1)-c1c(c(C(=O)N(C)C(C)(C)C)nn1-c1ccsc1)CO2 [Compound 1, 7-Methoxy-8-(1H-pyrazol-4-yl)-1-thiophen-3-yl-1,4-dihydro-chromeno[4,3-c]pyrazole-3-carboxylic Acid tert-butyl-methyl-amide] | < 100 | < 100 |  |
| COc1cc2c(cc1-c1ccn(C)c1)-c1c(c(C(=O)N3CCNCC3(C)C)nn1-c1ccsc1)CO2 [Compound 170] | < 100 | 1000 to 5000 |  |
| COc1cc2c(cc1C=C(C)C)-c1c(c(C(=O)N(C)C(C)(C)C)nn1-c1ccsc1)CO2 [Compound 6, 7-Methoxy-8-(2-methyl-propenyl)-1-thiophen-3-yl-1,4-dihydro-chromeno[4,3-c]pyrazole-3-carboxylic Acid tert-butyl-methyl-amide] | < 100 | 1000 to 5000 |  |
| COc1cc2c(cc1-c1ccnn1C)-c1c(c(C(=O)N3CCOCC3(C)C)nn1-c1ccsc1)CO2 [Compound 108, (3,3-Dimethyl-morpholin-4-yl)-[7-methoxy-8-(2-methyl-2H-pyrazol-3-yl)-1-thiophen-3-yl-1,4-dihydro-chromeno[4,3-c]pyrazol-3-yl]-methanone] | < 100 | 1000 to 5000 |  |

Now from value to compound, other results behind:

| EC50 (FSHR) [nM] | EC50 [1] [nM] | SMILES | Emax at 30 µM ([1]; read-out: Assay B: percental effect (response) relative to the maximum response of the FSH standard) [%] |
| --- | --- | --- | --- |
| < 100 | < 100 | COCCCn1cc(-c2cc3c(cc2OC)OCc2c(C(=O)N4CCOCC4(C)C)nn(-c4ccsc4)c2-3)cn1 [Compound 208, (3,3-Dimethyl-morpholin-4-yl)-{7-methoxy-8-[1-(3-methoxy-propyl)-1H-pyrazol-4-yl]-1-thiophen-3-yl-1,4-dihydro-chromeno[4,3-c]pyrazol-3-yl}-methanone] |  |
| 100 to 1000 | 1000 to 5000 | COc1cc2c(cc1C=C(C)C)-c1c(c(C(=O)NC(C)(C)CO)nn1-c1ccsc1)CO2 [Compound 10, 7-Methoxy-8-(2-methyl-propenyl)-1-thiophen-3-yl-1,4-dihydro-chromeno[4,3-c]pyrazole-3-carboxylic acid (2-hydroxy-1,1-dimethyl-ethyl)-amide] |  |
| 100 to 1000 | 100 to 1000 | COc1cc2c(cc1-c1cnn(C(=O)OC(C)(C)C)c1)-c1c(c(C(=O)N(C)C(C)(C)C)nn1-c1ccsc1)CO2 [Compound 20, 4-[3-(tert-Butyl-methyl-carbamoyl)-7-methoxy-1-thiophen-3-yl-1,4-dihydro-chromeno[4,3-c]pyrazol-8-yl]-pyrazole-1-carboxylic acid tert-butyl ester] |  |
| < 100 | 100 to 1000 | COc1cc2c(cc1C1=CCCCO1)-c1c(c(C(=O)N(C)C(C)(C)C)nn1-c1ccsc1)CO2 [Compound 148, 8-(5,6-Dihydro-4H-pyran-2-yl)-7-methoxy-1-thiophen-3-yl-1,4-dihydro-chromeno[4,3-c]pyrazole-3-carboxylic acid tert-butyl-methyl-amide] |  |
| 100 to 1000 | 100 to 1000 | COc1cc2c(cc1-c1cnn(CCN3CCOCC3)c1)-c1c(c(C(=O)N3CCOCC3(C)C)nn1-c1ccsc1)CO2 [Compound 202, (3,3-Dimethyl-morpholin-4-yl)-{7-methoxy-8-[1-(2-morpholin-4-yl-ethyl)-1H-pyrazol-4-yl]-1-thiophen-3-yl-1,4-dihydro-chromeno[4,3-c]pyrazol-3-yl}-methanone] |  |
| < 100 | < 100 | [2H]C([2H])([2H])OCC1(C)CCCN1C(=O)c1nn(-c2ccsc2)c2c1COc1cc(OC)c(-c3ccn(C)c3)cc1-2 (stereo not drawn) [Compound 184] |  |
| < 100 | 100 to 1000 | COc1cc2c(cc1-c1ccn(C)n1)-c1c(c(C(=O)N3CCOCC3(C)C)nn1-c1ccsc1)CO2 [Compound 94, (3,3-Dimethyl-morpholin-4-yl)-[7-methoxy-8-(1-methyl-1H-pyrazol-3-yl)-1-thiophen-3-yl-1,4-dihydro-chromeno[4,3-c]pyrazol-3-yl]-methanone] |  |
| < 100 | 1000 to 5000 | COc1cc2c(cc1OC(C)C)-c1c(c(C(=O)N(C)C(C)(C)C)nn1-c1ccsc1)CO2 [Compound 19, 8-Isopropoxy-7-methoxy-1-thiophen-3-yl-1,4-dihydro-chromeno[4,3-c]pyrazole-3-carboxylic Acid tert-butyl-methyl-amide] |  |

Source: patent US11365199B2, “Pyrazole compounds as modulators of FSHR and uses thereof” (Merck Patent GmbH, priority 2013, dated 2022)
